Source: patent US8067424B2, “Selective inhibitors for cyclin-dependent kinases” (Emory University, priority 2007, dated 2011)
Read-outs that look alike come from different tables or passages of the source.

Legend:
Format in all cases: biochemical
[1] = biological target: CSK (Homo sapiens, UniProt P41240); assay: Kinase screen: CSK assay
Experimental: (§1) Generally, the same procedure was used for all assays. Since the total assay volume was 25.5 microliters, 0.5 microliters of inhibitors at 51× assay concentration were added to the plates before any other addition.
(§2) The basic procedure was to add 0.5 microliters inhibitor/control in DMSO to plate. Fifteen microliters of enzyme/substrate/buffer mix were added and incubated for 5 min. Ten microliters MgATP at the relevant concentration were added and incubated for 30 min. The assay was stopped by adding 5 microliters of 3% orthophosphoric acid. The assay was transferred to a p81 filter plate and read in a scintillation counter of 30 sec/well. Note that this assay procedure was not followed for MKK1, which instead involved a two-step assay, and PKC alpha, which required the addition of lipid vesicles.
(500-1000 cpm/pmole) and incubated for 30 min at room temperature Assays were stopped by addition of 5 μl of 0.5 M (3%) orthophosphoric acid and then harvested onto P81 Unifilter plates with a wash buffer of 50 mM orthophosphoric acid.

[2] = biological target: DYRK1A (Homo sapiens, UniProt Q13627); assay: Kinase screen: DYRK 1A assay
Experimental: as §1, §2
(§3) (50-1000 cpm/pmole) and incubated for 30 min at room temperature. Assays were stopped by addition of 5 μl of 0.5 M (3%) orthophosphoric acid and then harvested onto P81 Unifilter plates with a wash buffer of 50 mM orthophosphoric acid.

[3] = biological target: SmMLCK (Homo sapiens, UniProt Q15746); assay: Kinase screen: smMLCK assay
Experimental: as §1, §2
(500-1000 cpm/pmole) and incubated for 30 mins at room temperature. Assays were stopped by addition of 5 μl of 0.5M (3%) orthophosphoric acid. Assays were harvested onto P81 Unifilter plates using a wash buffer of 50 mM orthophosphoric acid.

[4] = biological target: PLK1 (Homo sapiens, UniProt P53350); assay: Kinase screen: PLK1 assay
Experimental: as §1, §2, §3

[5] = biological target: SRPK1 (Homo sapiens, UniProt Q96SB4); assay: Kinase screen: SRPK1 assay
Experimental: as §1, §2
SRPK1 assay: 5-20 mU of SRPK1 (diluted in 50 mM Tris (pH 7.5), 0.1 mM EGTA, 1 mg/ml BSA, 0.1%, b-Mercaptoethanol) was assayed against substrate peptide ([…]) (SEQ ID NO: 25) in a final volume of 25.5 μl containing 50 mM Tris (pH 7.5), 0.1 mM EGTA, 0.1%, b-Mercaptoethanol, 300 μM substrate peptide, 10 mM magnesium acetate and 0.05 mM [33P-g-ATP] (500-1000 cpm/pmole) and incubated for 30 mins at room temperature. Assays were stopped by addition of 5 μl of 0.5M (3%) orthophosphoric acid. Assays were harvested onto P81 Unifilter plates using a wash buffer of 50 mM orthophosphoric acid.

[6] = biological target: T1, NEK2a (Homo sapiens, UniProt P51955); assay: Kinase screen: NEK2a assay
T1 sequence (P51955 1-445): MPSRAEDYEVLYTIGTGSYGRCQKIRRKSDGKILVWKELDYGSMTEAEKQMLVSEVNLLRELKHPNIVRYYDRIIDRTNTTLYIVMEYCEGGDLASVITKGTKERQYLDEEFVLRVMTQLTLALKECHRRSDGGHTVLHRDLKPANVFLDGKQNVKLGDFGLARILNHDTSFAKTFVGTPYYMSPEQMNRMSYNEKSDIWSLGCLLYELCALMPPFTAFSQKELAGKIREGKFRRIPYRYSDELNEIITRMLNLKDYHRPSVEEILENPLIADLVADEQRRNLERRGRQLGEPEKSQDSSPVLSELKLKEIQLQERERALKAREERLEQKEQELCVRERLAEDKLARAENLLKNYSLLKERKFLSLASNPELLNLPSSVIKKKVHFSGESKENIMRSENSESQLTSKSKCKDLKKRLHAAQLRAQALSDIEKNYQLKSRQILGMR
Experimental: as §1, §2
NEK2a assay: 5-20 mU of NEK2a (diluted in 50 mM Tris (pH 7.5), 0.1 mM EGTA, 1 mg/ml BSA, 0.1%, b-Mercaptoethanol) was assayed against NEK2a peptide ([…]) (SEQ ID NO: 19) in a final volume of 25.5 μl containing 50 mM Tris (pH 7.5), 0.1 mM EGTA, 0.01% Brij, 0.1%, b-Mercaptoethanol, 300 μM NEK2a peptide, 10 mM magnesium acetate and 0.05 mM [33P-g-ATP] (500-1000 cpm/pmole) and incubated for 30 mins at room temperature. Assays were stopped by addition of 5 µl of 0.5M (3%) orthophosphoric acid. Assays were harvested onto P81 Unifilter plates using a wash buffer of 50 mM orthophosphoric acid.

[7] = biological target: PAK6 (Homo sapiens, UniProt Q9NQU5); assay: Kinase screen: PAK6 assay
Experimental: as §1, §2
PAK6 assay: PAK6 (5-20 mU diluted in 50 mM Tris pH 7.5, 0.1 mM EGTA, 0.1% b-mercaptoethanol, 1 mg/ml BSA) was assayed against a substrate peptide ([…]) (SEQ ID NO: 30) in a final volume of 25.5 μl containing 50 mM Tris pH 7.5, 0.05% b-mercaptoethanol, 300 μM substrate peptide, 10 mM magnesium acetate and 0.02 mM [33P-g-ATP] (50-1000 cpm/pmole) and incubated for 30 min at room temperature. Assays were stopped by addition of 5 μl of 0.5 M (3%) orthophosphoric acid and then harvested onto P81 Unifilter plates with a wash buffer of 50 mM orthophosphoric acid.

[8] = 10 micromolar compound, read-out: mean activity remaining (as a percentage of the original activity), CSK
[9] = 10 micromolar compound, read-out: mean activity remaining (as a percentage of the original activity), DYRK 1A
[10] = 10 micromolar compound, read-out: mean activity remaining (as a percentage of the original activity), SmMLCK
[11] = 10 micromolar compound, read-out: mean activity remaining (as a percentage of the original activity), PLK 1
[12] = 10 micromolar compound, read-out: mean activity remaining (as a percentage of the original activity), SRPK1
[13] = 10 micromolar compound, read-out: mean activity remaining (as a percentage of the original activity), NEK 2a
[14] = 10 micromolar compound, read-out: mean activity remaining (as a percentage of the original activity), PAK6

Sequence of CSK (P41240 whole entry, species assumed): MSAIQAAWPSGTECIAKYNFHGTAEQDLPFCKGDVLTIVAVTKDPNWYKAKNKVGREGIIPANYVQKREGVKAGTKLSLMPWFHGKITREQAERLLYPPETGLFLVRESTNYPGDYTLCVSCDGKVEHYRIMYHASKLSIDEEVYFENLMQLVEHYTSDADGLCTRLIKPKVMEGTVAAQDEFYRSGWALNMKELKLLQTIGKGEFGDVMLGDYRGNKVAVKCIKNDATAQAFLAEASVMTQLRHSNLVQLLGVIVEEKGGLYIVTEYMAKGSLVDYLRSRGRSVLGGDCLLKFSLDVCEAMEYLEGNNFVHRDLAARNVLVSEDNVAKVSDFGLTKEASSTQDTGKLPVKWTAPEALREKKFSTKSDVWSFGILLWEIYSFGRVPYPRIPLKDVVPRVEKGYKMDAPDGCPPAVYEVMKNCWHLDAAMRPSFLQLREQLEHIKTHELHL
Sequence of SmMLCK (Q15746 923-1914): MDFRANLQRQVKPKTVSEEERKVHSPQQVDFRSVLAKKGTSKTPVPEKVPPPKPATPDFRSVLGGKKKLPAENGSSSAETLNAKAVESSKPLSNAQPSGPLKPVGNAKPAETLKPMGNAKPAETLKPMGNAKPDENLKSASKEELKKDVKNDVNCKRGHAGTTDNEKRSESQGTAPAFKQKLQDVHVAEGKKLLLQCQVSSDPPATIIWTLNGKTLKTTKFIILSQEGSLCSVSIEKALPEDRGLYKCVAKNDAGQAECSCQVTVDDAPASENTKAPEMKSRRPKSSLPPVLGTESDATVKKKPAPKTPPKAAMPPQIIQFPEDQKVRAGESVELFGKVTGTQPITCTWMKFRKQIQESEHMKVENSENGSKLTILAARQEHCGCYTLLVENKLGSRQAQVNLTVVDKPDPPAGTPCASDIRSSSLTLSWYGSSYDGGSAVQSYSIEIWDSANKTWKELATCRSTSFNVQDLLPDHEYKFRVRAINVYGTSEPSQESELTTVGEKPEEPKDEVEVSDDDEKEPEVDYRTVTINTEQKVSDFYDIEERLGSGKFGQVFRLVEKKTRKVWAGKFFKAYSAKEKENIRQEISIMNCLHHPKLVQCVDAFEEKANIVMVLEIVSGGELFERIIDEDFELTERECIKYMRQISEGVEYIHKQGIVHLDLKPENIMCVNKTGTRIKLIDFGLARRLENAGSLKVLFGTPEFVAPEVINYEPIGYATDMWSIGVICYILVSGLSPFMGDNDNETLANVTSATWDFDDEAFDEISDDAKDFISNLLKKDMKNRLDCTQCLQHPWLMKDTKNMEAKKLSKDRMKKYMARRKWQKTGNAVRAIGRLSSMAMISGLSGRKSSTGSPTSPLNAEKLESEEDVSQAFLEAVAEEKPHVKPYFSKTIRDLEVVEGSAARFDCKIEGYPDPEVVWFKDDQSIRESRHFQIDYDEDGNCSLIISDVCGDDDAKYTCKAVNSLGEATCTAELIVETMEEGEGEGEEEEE
Sequence of PLK1 (P53350 whole entry, species assumed): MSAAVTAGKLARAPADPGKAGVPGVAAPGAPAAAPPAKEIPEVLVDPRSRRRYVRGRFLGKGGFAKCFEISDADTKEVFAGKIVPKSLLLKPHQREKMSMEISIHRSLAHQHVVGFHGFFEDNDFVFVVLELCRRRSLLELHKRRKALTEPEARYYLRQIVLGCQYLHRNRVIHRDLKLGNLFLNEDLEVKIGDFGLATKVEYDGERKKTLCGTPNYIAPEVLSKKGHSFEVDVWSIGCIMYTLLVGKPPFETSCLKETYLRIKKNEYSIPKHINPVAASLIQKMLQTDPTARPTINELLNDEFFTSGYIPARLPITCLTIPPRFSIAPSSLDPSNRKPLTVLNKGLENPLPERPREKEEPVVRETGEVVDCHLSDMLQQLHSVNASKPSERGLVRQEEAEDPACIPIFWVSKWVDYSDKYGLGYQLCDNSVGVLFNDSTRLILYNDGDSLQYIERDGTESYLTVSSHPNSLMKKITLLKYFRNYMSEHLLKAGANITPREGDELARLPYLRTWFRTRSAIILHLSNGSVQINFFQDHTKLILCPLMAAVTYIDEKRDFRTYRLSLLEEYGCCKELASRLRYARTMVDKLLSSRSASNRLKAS
Sequence of PAK6 (Q9NQU5 whole entry, species assumed): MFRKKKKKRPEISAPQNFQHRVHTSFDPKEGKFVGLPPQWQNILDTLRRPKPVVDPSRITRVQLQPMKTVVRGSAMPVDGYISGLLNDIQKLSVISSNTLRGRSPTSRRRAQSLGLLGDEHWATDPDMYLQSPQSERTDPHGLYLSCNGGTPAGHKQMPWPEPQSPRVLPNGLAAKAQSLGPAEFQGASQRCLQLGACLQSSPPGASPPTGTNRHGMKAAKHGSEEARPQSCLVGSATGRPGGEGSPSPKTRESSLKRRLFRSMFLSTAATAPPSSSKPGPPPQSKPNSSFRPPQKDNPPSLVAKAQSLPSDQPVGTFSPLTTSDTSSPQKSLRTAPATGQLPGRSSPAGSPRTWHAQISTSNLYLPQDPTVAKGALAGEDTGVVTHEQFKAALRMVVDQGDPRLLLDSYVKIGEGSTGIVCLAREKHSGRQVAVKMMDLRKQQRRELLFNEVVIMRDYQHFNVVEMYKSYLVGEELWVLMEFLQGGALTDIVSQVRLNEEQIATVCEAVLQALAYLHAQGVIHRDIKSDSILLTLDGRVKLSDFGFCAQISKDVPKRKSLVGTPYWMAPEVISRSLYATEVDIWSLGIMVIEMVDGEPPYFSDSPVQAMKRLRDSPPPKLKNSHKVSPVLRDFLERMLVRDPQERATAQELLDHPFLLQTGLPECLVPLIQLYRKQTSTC
Sequence of SRPK1 (Q96SB4 whole entry, species assumed): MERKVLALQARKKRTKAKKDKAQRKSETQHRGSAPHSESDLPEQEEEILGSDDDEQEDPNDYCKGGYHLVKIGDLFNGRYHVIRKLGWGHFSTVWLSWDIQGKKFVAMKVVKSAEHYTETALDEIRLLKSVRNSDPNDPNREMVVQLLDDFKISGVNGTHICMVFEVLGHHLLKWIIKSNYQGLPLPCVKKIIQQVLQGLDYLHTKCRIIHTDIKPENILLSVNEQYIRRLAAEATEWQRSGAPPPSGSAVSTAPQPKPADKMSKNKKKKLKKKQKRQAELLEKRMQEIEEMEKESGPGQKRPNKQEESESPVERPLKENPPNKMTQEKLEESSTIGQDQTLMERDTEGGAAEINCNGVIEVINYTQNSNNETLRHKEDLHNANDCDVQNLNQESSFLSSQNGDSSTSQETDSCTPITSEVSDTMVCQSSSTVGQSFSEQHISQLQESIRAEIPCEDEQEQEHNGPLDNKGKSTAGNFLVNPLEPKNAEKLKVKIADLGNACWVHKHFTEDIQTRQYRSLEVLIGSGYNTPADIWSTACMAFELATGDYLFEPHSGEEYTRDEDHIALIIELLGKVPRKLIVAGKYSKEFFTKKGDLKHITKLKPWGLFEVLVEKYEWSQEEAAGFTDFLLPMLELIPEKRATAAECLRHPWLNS

Row | SMILES | remaining activity at 10 µM [1, 8] [%] | remaining activity at 10 µM [2, 9] [%] | remaining activity at 10 µM [3, 10] [%] | remaining activity at 10 µM [4, 11] [%] | remaining activity at 10 µM [5, 12] [%] | remaining activity at 10 µM [6, 13] [%] | remaining activity at 10 µM [7, 14] [%] | further results
1 | CC(C)c1cnn2c(NCc3ccccc3F)cc(NCCCCCN)nc12 [ICEC-0232] |  |  |  |  |  |  |  | mean activity remaining (as a percentage of the original activity), CSK ([1]; 10 micromolar compound): 78%; mean activity remaining (as a percentage of the original activity), DYRK 1A ([2]; 10 micromolar compound): 11%; mean activity remaining (as a percentage of the original activity), SmMLCK ([3]; 10 micromolar compound): 38%; mean activity remaining (as a percentage of the original activity), PLK 1 ([4]; 10 micromolar compound): 55%; mean activity remaining (as a percentage of the original activity), SRPK1 ([5]; 10 micromolar compound): 38%; mean activity remaining (as a percentage of the original activity), NEK 2a ([6]; 10 micromolar compound): 83%; mean activity remaining (as a percentage of the original activity), PAK6 ([7]; 10 micromolar compound): 85%
2 | CC(C)c1cnn2c(NCc3ccccc3)cc(NCCCCCCCN)nc12 [BS-181] |  |  |  |  |  |  |  | remaining activity at 10 µM ([1]; CSK, 10 μM, read-out: Mean Remaining Enzyme Activity (%)): 89%; remaining activity at 10 µM ([2]; DYRK1A, 10 μM, read-out: Mean Remaining Enzyme Activity (%)): 17%; IC50 ([2]; kinase screen): 2.3 µM; remaining activity at 10 µM ([3]; SmMLCK, 10 μM, read-out: Mean Remaining Enzyme Activity (%)): 35%; remaining activity at 10 µM ([4]; PLK1, 10 μM, read-out: Mean Remaining Enzyme Activity (%)): 100%; remaining activity at 10 µM ([5]; SRPK1, 10 μM, read-out: Mean Remaining Enzyme Activity (%)): 44%; remaining activity at 10 µM ([6]; NEK2a, 10 μM, read-out: Mean Remaining Enzyme Activity (%)): 92%; remaining activity at 10 µM ([7]; PAK6, 10 μM, read-out: Mean Remaining Enzyme Activity (%)): 95%
3 | CC[C@H](CO)Nc1cc(NCc2ccccc2)n2ncc(C(C)C)c2n1 [ICEC0067] | 77 | 27 | 81 | 64 | 50 | 75 | 78 | 
4 | C=C[C@H](CO)Nc1cc(NCc2ccccc2)n2ncc(C(C)C)c2n1 [ICEC0065] | 77 | 30 | 92 | 56 | 84 | 96 | 82 | 
5 | CC(C)c1cnn2c(NCc3ccccc3)cc(N[C@@H](CO)[C@H](O)CO)nc12 [ICEC0318, (3S)-3-(7-(Benzylamino)-3-isopropylpyrazolo[1,5-a]pyrimidin-5-ylamino)butane-1,2,4-triol] | 77 | 15 | 101 | 68 | 62 | 102 | 85 | 
